Paper PMC5845537 (Frontiers in Pharmacology, 2018)
Where two headings read alike, the source gives them in different places.

How the values were obtained:
[1] = test system: GABAA receptor; experiment: Ex vivo autoradiography, GABAA receptor saturation binding ([3H]muscimol), medial prefrontal cortex; set-up: species or system rat; conditions: PCP/vortioxetine group vs all other treatment groups
Description: Rats used in ex vivo autoradiography (EVA) experiments were randomly assigned to one of four experimental groups characterized by either subchronic saline or PCP (as described above) along with either vehicle or vortioxetine-infused food (1.8 g vortioxetine/kg food weight, as described in the attentional set shifting task). On day 8 of PCP withdrawal, rats were anesthetized using CO2 and killed by decapitation. Brains were quickly and gently removed from the skull, flash frozen on powdered dry ice, and stored at -20°C until sectioning. Later, 12 μm coronal sections were collected from an area ranging from approximately +4.2 mm to +2.3 mm anterior to Bregma ([Paxinos and Watson, 1998]) using a cryostat (MicroM, Germany) and were thaw-mounted on glass microscope slides. This range of coronal slices was chosen in order to study the prelimbic and infralimbic subregions of the medial prefrontal cortex, given the importance of these regions in tests of executive function such as the attentional set shifting task ([Ng et al., 2007]). After the tissue mounted on the microscope slides had dried thoroughly (in order to reduce damage from freezing), slides were packed into slide boxes with desiccator pellets, and stored at -20°C for use in EVA saturation binding and competition experiments.
Each of the EVA procedures used in this study are variations on a similar theme. On the day of an experiment, slide-boxes were defrosted under a constant stream of air at room temperature until the boxes were dry and equilibrated with the environment in terms of temperature. This step was undertaken in order to ensure brain tissue was not damaged by frosting due to a sudden change in humidity. Prior to any binding experiments, slides were preincubated in the appropriate preincubation buffer and dried at room temperature. Subsequently, tissue was incubated in an assay buffer containing a radioligand appropriate for the receptor of interest, then rinsed in assay buffer, and dried overnight in a vacuum desiccator. Specific information on the contents of the preincubation buffers, assay buffers and other assay conditions are listed in Table 2. Finally, slides were opposed to a tritium-sensitive phosphor screen (Fuji imaging plate, GE Healthcare, Pittsburgh, PA, United States) for 5 days before being read in a phosphorimager (Typhoon FLA7000, GE Healthcare). Analysis methods are listed below under statistical analyses.
In saturation binding experiments, the concentration of the relevant radioligand in the assay buffer was systematically varied in order to determine the KD and Bmax of the receptor in question. At each radioligand concentration, the non-specific binding was determined on a separate slide by including a high concentration of a non-radioactive competitor ligand in the assay buffer along with the radioligand. For GABAA receptor saturation binding experiments, [^3H]muscimol was examined in quarter log steps ranging from 0.56 to 300 nM. For GABAB receptor saturation binding experiments, [^3H]CGP54626 was examined in quarter log steps ranging from 0.17 to 100 nM.
For saturation binding studies, the primary dependent measures were pKD and Bmax. […] A linear regression was performed to determine the relationship between intensity and bound radioactivity (measured on the standards in units of μCi/g). […] These optical intensity values were transformed into bound radioactivity (expressed as nCi/mg) measurements by interpolation from the standard curve noted above. […]

[2] = test system: 5-HT1A receptors; conditions: 2014, cited from earlier work
[3] = test system: rodent 5-HT7 receptors; conditions: rodent vs human; no reference given; cited from earlier work
[4] = test system: 5-HT1B receptors; conditions: 2014, cited from earlier work
[5] = test system: SERT; conditions: cited from earlier work
[6] = test system: 5-HT3 receptor; experiment: 5-HT3 receptor occupancy (literature); format: in vivo, rat; conditions: 0.22 g/kg subchronic dose; estimated based on known SERT:5-HT3 receptor occupancy relationships; ref Leiser et al., 2014
[7] = test system: 5-HT7 receptors; conditions: 2014, cited from earlier work
[8] = 10 mg/kg 1 h s.c., ref Leiser et al.
[9] = subchronic dose used in the mouse OR and object placement tasks, expected, ref Wallace et al., Waller et al., 2017

## Cc1ccc(Sc2ccccc2N2CCNCC2)c(C)c1 [vortioxetine]
[1]
  effect of treatment on [3H]muscimol affinity for the GABAA receptor: small but significant reduction
[2]; [8]
  occupancy at 5-HT1A receptors: ≈ 40%
[2]; [9]
  occupancy at 5-HT1A receptors: negligible
[3]
  lesser affinity at rodent 5-HT7 receptors by comparison to humans: approximately 10 fold
[4]; 10 mg/kg 1 h s.c., full occupancy, ref Leiser et al.
  occupancy at 5-HT1B receptors: ≥ 80%
[4]; subchronic dose used in the mouse OR and object placement tasks, ref Wallace et al., Waller et al., 2017
  occupancy at 5-HT1B receptors: approximately 50%
[5]; 1 mg/kg acute dose, ref Leiser et al., 2014
  occupancy at the SERT: 60–65%
[5]; 10 mg/kg 1 h s.c., full occupancy, ref Leiser et al., 2014
  occupancy at SERT: ≥ 80%
[5]; 0.22 g/kg subchronic dose (food), ref Waller et al., 2017
  occupancy at the SERT: approximately 50%
[5]; subchronic dose used in the mouse OR and object placement tasks, ref Wallace et al., 2014, Waller et al., 2017
  occupancy at SERT: full occupancy
[5]; the vortioxetine doses used, ref Stenkrona et al., 2013, Leiser et al., 2014
  SERT occupancy: 50–90%
[6]
  occupancy at 5-HT3 receptors: full occupancy
[7]; [8]
  occupancy at 5-HT7 receptors: ≈ 40%
[7]; [9]
  occupancy at 5-HT7 receptors: negligible
